Reference: patent US20100210649A1, “PYRIDAZINONES AND FURAN-CONTAINING COMPOUNDS” (Sloan-Kettering Institute for Cancer Research, priority 2006, published 2010)
Read-outs that look alike come from different tables or passages of the source.

What was measured:
Format in all cases: cell-based, human
H1650 = experiment: Non Small Cell Lung Cancer proliferation assay (Alamar Blue reduction), H1650; conditions: primary screening, 10 μM compound in 1% DMSO (v/v); for inhibition at 10 µM: Homo sapiens, NCI-H1650
Experimental: (§1) These cells have a doubling time of 1-2 days. All cell types are adherent and grow in colonies. The cells should be kept at a density between 50,000 cells/mL -500,000 cells/mL to provide for optimum growth and adequate nutrition. The cell line should be maintained at 37° C. in a humidified atmosphere with 5% CO2 in a sterile cell culture incubator.
(§2) Non Small Cell Lung Cancer Proliferation Assay.
(§3) High Controls for this assay are made by treating Non Small Cell Lung Cancer cells with 5 ul of 10% DMSO. [Final concentration in this assay is 1% DMSO].
(§4) Important Note: All compounds for testing in this assay should be done at the final concentration of 1% DMSO.
(§5) After addition, the cells are placed in cell culture incubator at 37° C. for 48 hours for complete treatment.
(§6) After drug treatment, cytotoxicity is measured by Alamar Blue reduction.
(§7) The cells are incubated for 48 hours at 37° C. to complete the Alamar Blue reduction.
(§8) The final step in the assay is to measure the amount of Alamar Blue reduction. […] The Alamar Blue fluorescence is measured at an excitation of 530 nm and emission of 590 nm.
(§9) For the NSCLC project, the cell based assay was screened against a small molecule library of approximately 200,000 compounds. The compound library is stored in our automated robotic freezer (Biophile) at −20° C. in 100% DMSO. Compound freeze and thaw cycles are kept to a minimum. […] This assay was performed on a fully automated linear track robotic platform (CRS F3 Robot System, Thermo Electron Corp., Ontario, Canada) utilizing several integrated peripherals for plate handling, liquid dispensing, and readout detection. […] The microplates are then placed at 37° C. for 48 hours to complete treatment of cells with compounds. Next, 5 ul of alamar blue was added using a liquid dispenser (Flexprop Precision Dispenser, Perkin Elmer, Mass., USA) and incubated for 48 hours at 37° C. The alamar blue prompt fluorescence was measured on Victor V (Victor^3 V, Perkin Elmer, Mass., USA) and output data files were loaded into ORIS (Oncology Research Informatics System, MSKCC, NY, USA), a screening data acquisition and analysis platform.
(§10) The dose response studies were done with the following standard procedure. First, the cells were counted and dispensed at 250 cells/well into 384-well microplates with compound. The cells were incubated for 48 hours at 37 C to complete treatment, and then alamar blue was added for an additional 48 hours. Finally, alamar blue reduction was measured and the data was loaded into ORIS, our data screening acquisition platform.

H1975 = experiment: Non Small Cell Lung Cancer proliferation assay (Alamar Blue reduction), H1975; conditions: primary screening, 10 μM compound in 1% DMSO (v/v); for inhibition at 10 µM: Homo sapiens, NCI-H1975
Experimental: as §1, §2, §3, §4, §5, §6, §7, §8, §9, §10

H2030 = experiment: Non Small Cell Lung Cancer proliferation assay (Alamar Blue reduction), H2030; conditions: primary screening, 10 μM compound in 1% DMSO (v/v); for inhibition at 10 µM: Homo sapiens, NCI-H2030
Experimental: as §1, §2, §3, §4, §5, §6, §7, §8, §9, §10

H3255 = experiment: Non Small Cell Lung Cancer proliferation assay (Alamar Blue reduction), H3255; conditions: primary screening, 10 μM compound in 1% DMSO (v/v); for inhibition at 10 µM: Homo sapiens, NCI-H3255
Experimental: as §1, §2, §3, §4, §5, §6, §7, §8, §9, §10

[1] = read-out: percentage inhibition H1650
[2] = read-out: percentage inhibition H1975
[3] = read-out: percentage inhibition H2030
[4] = read-out: percentage inhibition H3255
[5] = H1650, read-out: PRIMARY HTS [%] H1650 (percentage inhibition)
[6] = H1975, read-out: PRIMARY HTS [%] H1975 (percentage inhibition)
[7] = H2030, read-out: PRIMARY HTS [%] H2030 (percentage inhibition)
[8] = H3255, read-out: PRIMARY HTS [%] H3255 (percentage inhibition)

Row | SMILES | inhibition at 10 µM (H1650; [1]) [%] | inhibition at 10 µM (H1975; [2]) [%] | inhibition at 10 µM (H2030; [3]) [%] | inhibition at 10 µM (H3255; [4]) [%] | also measured
1 | COc1cnn(-c2ccc([N+](=O)[O-])cc2)c(=O)c1Cl [compound 104339] | -21 | -9 | -3 | 3 | 
2 | COc1cnn(-c2ccccc2)c(=O)c1Cl [compound 104386] | -12 | -11 | 6 | 0 | 
3 | COc1cnn(-c2cccc(Cl)c2)c(=O)c1Cl [compound 104390] | 15 | 4 | -6 | 34 | 
4 | COc1c(Cl)cnn(-c2cccc(C)c2)c1=O [compound 104415] | -20 | 15 | -3 | 9 | 
5 | CSc1cnn(-c2ccccc2)c(=O)c1SC [compound 104423] | -11 | -20 | -3 | 1 | 
6 | Cc1ccc(C(=O)Nc2ccc3ccccc3c2)o1 [compound 105503] |  |  |  |  | inhibition at 10 µM (H1650; [5]): -10%; inhibition at 10 µM (H1975; [6]): -13%; inhibition at 10 µM (H2030; [7]): -7%; inhibition at 10 µM (H3255; [8]): 0%
7 | Cc1ccc([N+](=O)[O-])cc1NC(=O)c1ccco1 [compound 107911] |  |  |  |  | inhibition at 10 µM (H1650; [5]): 8%; inhibition at 10 µM (H1975; [6]): -15%; inhibition at 10 µM (H2030; [7]): 2%; inhibition at 10 µM (H3255; [8]): 7%
8 | Cc1cccnc1NC(=O)c1ccc([N+](=O)[O-])o1 [compound 108321] |  |  |  |  | PRIMARY HTS [%] H1650 (percentage inhibition) (H1650; H1650): 38%; PRIMARY HTS [%] H1975 (percentage inhibition) (H1975; H1975): −7%; PRIMARY HTS [%] H2030 (percentage inhibition) (H2030; H2030): 6%; PRIMARY HTS [%] H3255 (percentage inhibition) (H3255; H3255): 2%
9 | O=C(Nc1ccc(NC(=O)c2ccc(Cl)cc2Cl)cc1)c1cc2ccccc2o1 [compound 109007] |  |  |  |  | inhibition at 10 µM (H1650; [5]): -6%; inhibition at 10 µM (H1975; [6]): -3%; inhibition at 10 µM (H2030; [7]): 3%; inhibition at 10 µM (H3255; [8]): 1%
10 | COc1c(Cl)cnn(-c2ccc(Cl)c(C(F)(F)F)c2)c1=O [compound 174405] | 13 | 28 | -9 | 32 | 
11 | CCSc1cnn(-c2ccccc2)c(=O)c1SCC [compound 174406] | 18 | 3 | -9 | 8 | 
12 | O=C(COc1cnn(-c2ccccc2)c(=O)c1Cl)c1ccc(Br)cc1 [compound 176702] | 29 | 26 | -14 | -21 | 
13 | COc1ccc(-n2nc(-n3cnc4ccccc43)c(C)c(C#N)c2=O)cc1 [compound 176963] | 11 | -5 | 4 | 17 | 
14 | O=C(COc1cnn(-c2ccccc2)c(=O)c1Cl)c1ccc(Cl)cc1 [compound 177215] | 6 | 25 | -9 | 13 | 
15 | O=c1c(Sc2ccc(Cl)cc2)cc(Cl)nn1-c1ccccc1 [compound 177261] | 14 | 16 | -8 | 8 | 
16 | O=c1ccc(Cl)nn1-c1cccc(Br)c1 [compound 178393] | 8 | 3 | -11 | -4 | 
17 | CCCOc1cnn(-c2ccccc2)c(=O)c1Cl [compound 179389] | -3 | 1 | 8 | 28 | 

Row | SMILES | inhibition at 10 µM (H1650; [1]) [%] | inhibition at 10 µM (H1975; [2]) [%] | inhibition at 10 µM (H2030; [3]) [%] | inhibition at 10 µM (H3255; [4]) [%] | also measured
18 | O=C(Cc1ccccc1)Oc1ccc(=O)n(-c2ccccc2)n1 [compound 180651] | 21 | 13 | 11 | 35 | 
19 | Nc1ccc(Sc2cnn(-c3ccccc3)c(=O)c2Cl)cc1 [compound 181612] | 7 | -11 | 11 | 11 | 
20 | N=c1c(-c2nc3ccccc3[nH]2)cc(C(=O)c2ccco2)nn1-c1ccccc1 [compound 181801] | 13 | 24 | -7 | 7 | 
21 | Cc1cccc(-n2nc(C(=O)c3ccco3)cc(-c3nc4ccccc4[nH]3)c2=N)c1 [compound 181802] | -2 | 14 | -5 | 27 | 
22 | COc1ccc(Sc2cnn(-c3ccccc3)c(=O)c2Cl)cc1 [compound 181862] | 7 | 3 | 9 | 22 | 
23 | COc1ccc(-n2nc(C(=O)c3ccco3)cc(-c3nc4ccccc4[nH]3)c2=N)cc1 [compound 182721] | 8 | 9 | 11 | 4 | 
24 | COc1cnn(-c2ccccc2)c(=O)c1SCc1ccc(Cl)c(Cl)c1 [compound 182729] | 10 | 23 | -14 | 1 | 
25 | O=c1c2c(cnn1-c1ccccc1)SC(c1ccccc1)S2 (stereo not shown) [compound 182826] |  |  |  |  | percentage inhibition H1650 (H1650): 13%; percentage inhibition H1975 (H1975): 12%; percentage inhibition H2030 (H2030): −11%; percentage inhibition H3255 (H3255): −13%
26 | O=c1c(SCc2ccccc2)c(Cl)cnn1-c1ccccc1 [compound 182827] | -20 | 14 | -6 | -24 | 
27 | O=c1c(SCc2ccccc2)c(SC2CCCCO2)cnn1-c1ccccc1 (stereo not shown) [compound 182828] | 25 | -5 | -8 | 18 | 
28 | Cc1ccc(-n2ncc(SCc3ccccc3)c(Cl)c2=O)cc1 [compound 182830] | 20 | 10 | 3 | -4 | 
29 | CSc1c(SCc2ccccc2)cnn(-c2ccccc2)c1=O [compound 182831] | -4 | 5 | -12 | -18 | 
30 | O=C(CSc1cnn(-c2ccccc2)c(=O)c1Cl)c1ccc(Br)cc1 [compound 183073] | -3 | -6 | 8 | 30 | 
31 | Cc1ccc(C)c(Sc2cnn(-c3ccccc3)c(=O)c2Cl)c1 [compound 183339] | 15 | 8 | -12 | -30 | 
32 | CCOC(=O)C(C)Oc1ccc(=O)n(-c2ccccc2)n1 (stereo not shown) [compound 185423] | 16 | -9 | 3 | 23 | 
33 | N=c1c(-c2nc3ccccc3[nH]2)cc(C(=O)c2cccs2)nn1-c1ccc(Cl)cc1 [compound 186017] | -12 | -6 | -4 | -13 | 
34 | Cc1ccccc1-n1nc(C(=O)c2cccs2)cc(-c2nc3ccccc3[nH]2)c1=N [compound 186018] | 42 | -4 | 4 | 35 | 
